Measured values as given in patent US8658697B2 (priority 2004, dated 2014).

The molecules below were run on Tacaribe virus (TRVL 11573) (assay: microbe, parasite or virus in culture). Conditions: Mammarenavirus tacaribeense, Vero, read-out: Tacaribe EC50.
Type: cell-based
With `CC(NC(=O)NNS(=O)(=O)c1ccc(-c2ccccc2)cc1)(C(F)(F)F)C(F)(F)F` [Example 1] the EC50 was < 0.5 µM. In the case of `CC(C)(C)c1ccc(S(=O)(=O)NNC(=O)NC(C)(C(F)(F)F)C(F)(F)F)cc1` [Example 2], the EC50 is reported as < 0.5 µM. In the case of `CN1CCOc2cc(S(=O)(=O)NNC(=O)NC(C)(C(F)(F)F)C(F)(F)F)ccc21` [Example 3, N-2-(1,1,1,3,3,3-Hexafluoro-2-methylpropyl)-2-[7-(4-methyl-3,4-dihydro-2H-benzo[1,4]oxazinyl)sulfonyl] hydrazine-1-carboxamide], the EC50 is reported as < 0.5 µM. For `CN(C)c1cccc2c(S(=O)(=O)NNC(=O)NC(C)(C(F)(F)F)C(F)(F)F)cccc12` [Example 4, N-2-(1,1,1,3,3,3-Hexafluoro-2-methylpropyl)-2-[5-(1-dimethylamino-naphthyl)sulfonyl]hydrazine-1-carboxamide], the EC50 was < 0.5 µM. `Cc1cc(C)c(S(=O)(=O)NNC(=O)NC(C)(C(F)(F)F)C(F)(F)F)c(C)c1` [Example 5, N-2-(1,1,1,3,3,3-Hexafluoro-2-methylpropyl)-2-[(2,4,6-trimethylphenyl)sulfonyl)hydrazine-1-carboxamide] was tested, and the EC50 was < 0.5 µM. `COc1ccc(Cl)cc1S(=O)(=O)NNC(=O)NC(C)(C(F)(F)F)C(F)(F)F` [Example 6, N-2-(1,1,1,3,3,3-Hexafluoro-2-methylpropyl)-2-[(3-chloro-6-methoxyphenyl)sulfonyl]hydrazine-1-carboxamide] was tested, and the EC50 was < 0.5 µM. `COc1ccc(OC)c(S(=O)(=O)NNC(=O)NC(C)(C(F)(F)F)C(F)(F)F)c1` [Example 7, N-2-(1,1,1,3,3,3-Hexafluoro-2 methylpropyl)-2-[(3,6-dimethoxyphenyl)sulfonyl] hydrazine-1-carboxamide] was tested, and the EC50 was < 0.5 µM. In the case of `CC(NC(=O)NNS(=O)(=O)c1ccc(-c2csnn2)cc1)(C(F)(F)F)C(F)(F)F` [Example 8, N-2-(1,1,1,3,3,3-Hexafluoro-2-methylpropyl)-2-[(4-(4-[1,2,3]thiadiazolyl)phenyl)sulfonyl] hydrazine-1-carboxamide], the EC50 is reported as < 0.5 µM. `CC(NC(=O)NNS(=O)(=O)c1cccc(Br)c1)(C(F)(F)F)C(F)(F)F` [Example 9, N-2-(1,1,1,3,3,3-Hexafluoro-2-methylpropyl)-2-[(3-bromophenyl)sulfonyl)hydrazine-1-carboxamide] was tested, and the EC50 was < 0.5 µM. `CC(NC(=O)NNS(=O)(=O)c1ccc(Br)cc1)(C(F)(F)F)C(F)(F)F` [Example 10, N-2-(1,1,1,3,3,3-Hexafluoro-2-methylpropyl)-2-[(4-bromophenyl)sulfonyl]hydrazine-1-carboxamide] was tested, and the EC50 was < 0.5 µM. With `Cc1ccc(S(=O)(=O)NNC(=O)NC(C)(C(F)(F)F)C(F)(F)F)cc1` [Example 11, N-2-(1,1,1,3,3,3-Hexafluoro-2-methylpropyl)-2-[(4-methylphenyl)sulfonyl]hydrazine-1-carboxamide] the EC50 was < 0.5 µM. With `COc1ccc(S(=O)(=O)NNC(=O)NC(C)(C(F)(F)F)C(F)(F)F)cc1` [Example 12, N-2-(1,1,1,3,3,3-Hexafluoro-2-methylpropyl)-2-[(4-methylphenyl)sulfonyl]hydrazine-1-carboxamide] the EC50 was < 0.5 µM. With `CC(NC(=O)NNS(=O)(=O)c1ccc(OC(F)F)cc1)(C(F)(F)F)C(F)(F)F` [Example 13, N-2-(1,1,1,3,3,3-Hexafluoro-2-methylpropyl)-2-[(4-difluoromethoxyphenyl)sulfonyl] hydrazine-1-carboxamide] the EC50 was < 0.5 µM. `CC(NC(=O)NNS(=O)(=O)c1ccc(Cl)c(F)c1)(C(F)(F)F)C(F)(F)F` [Example 14, N-2-(1,1,1,3,3,3-Hexafluoro-2-methylpropyl)-2-[(3-fluoro-4-chloro-phenyl)sulfonyl]hydrazine-1-carboxamide] was tested, and the EC50 was 0.5 to 1 µM. `CC(NC(=O)NNS(=O)(=O)c1ccc(OC(F)(F)F)cc1)(C(F)(F)F)C(F)(F)F` [Example 15, N-2-(1,1,1,3,3,3-Hexafluoro-2-methylpropyl)-2-[(4-trifluoromethoxyphenyl)sulfonyl] hydrazine-1-carboxamide] gave an EC50 of 0.5 to 1 µM. `CC(NC(=O)NNS(=O)(=O)c1ccc(F)cc1)(C(F)(F)F)C(F)(F)F` [Example 16, N-2-(1,1,1,3,3,3-Hexafluoro-2-methylpropyl)-2-[(4-fluoro-phenyl)sulfonyl]hydrazine-1-carboxamide] showed an EC50 of 0.5 to 1 µM. `COc1cccc(S(=O)(=O)NNC(=O)NC(C)(C(F)(F)F)C(F)(F)F)c1` [Example 17, N-2-(1,1,1,3,3,3-Hexafluoro-2-methylpropyl)-2-[(3-methoxyphenyl)sulfonyl]hydrazine-1-carboxamide] showed an EC50 of 0.5 to 1 µM. For `Cc1ccccc1S(=O)(=O)NNC(=O)NC(C)(C(F)(F)F)C(F)(F)F` [Example 18, N-2-(1,1,1,3,3,3-Hexafluoro-2-methylpropyl)-2-[(2-methoxyphenyl)sulfonyl]hydrazine-1-carboxamide], the EC50 was 0.5 to 1 µM. `CC(NC(=O)NNS(=O)(=O)c1cccc(C(F)(F)F)c1)(C(F)(F)F)C(F)(F)F` [Example 19] was tested, and the EC50 was 0.5 to 1 µM. `COc1ccc(S(=O)(=O)NNC(=O)NC(C)(C(F)(F)F)C(F)(F)F)c(OC)c1` [Example 20, N-2-(1,1,1,3,3,3-Hexafluoro-2-methylpropyl)-2-[(2,4-dimethoxyphenyl)sulfonyl] hydrazine-1-carboxamide] showed an EC50 of 0.5 to 1 µM. `Cc1cccc(S(=O)(=O)NNC(=O)NC(C)(C(F)(F)F)C(F)(F)F)c1` [Example 22, N-2-(1,1,1,3,3,3-Hexafluoro-2-methylpropyl)-2-[(3-methylphenyl)sulfonyl]hydrazine-1-carboxamide] was tested, and the EC50 was 0.5 to 1 µM. In the case of `CC(NC(=O)NNS(=O)(=O)c1ccc(C(F)(F)F)cc1)(C(F)(F)F)C(F)(F)F` [Example 23, N-2-(1,1,1,3,3,3-Hexafluoro-2-methylpropyl)-2-[(4-trifluoromethylphenyl)sulfonyl] hydrazine-1-carboxamide], the EC50 is reported as 0.5 to 1 µM. `CC(NC(=O)NNS(=O)(=O)c1ccccc1C(F)(F)F)(C(F)(F)F)C(F)(F)F` [Example 24, N-2-(1,1,1,3,3,3-Hexafluoro-2-methylpropyl)-2-[(2-trifluoromethylphenyl)sulfonyl] hydrazine-1-carboxamide] was tested, and the EC50 was 1 to 5 µM. Molecule `CC(NC(=O)NNS(=O)(=O)c1ccc(S(=O)(=O)N2CCCC2)cc1)(C(F)(F)F)C(F)(F)F` [Example 25, N-2-(1,1,1,3,3,3-Hexafluoro-2-methylpropyl)-2-[4-(pyrrolidin-1-sulfonyl)phenylsulfonyl]hydrazine-1-carboxamide] has an EC50 of 1 to 5 µM. `CC(NC(=O)NNS(=O)(=O)c1ccccc1Cl)(C(F)(F)F)C(F)(F)F` [Example 26, N-2-(1,1,1,3,3,3-Hexafluoro-2-methylpropyl)-2-[(2-chlorophenyl)sulfonyl]hydrazine-1-carboxamide] gave an EC50 of 1 to 5 µM. Work on `CC(NC(=O)NNS(=O)(=O)c1ccc(N2CCOCC2)nc1)(C(F)(F)F)C(F)(F)F` [Example 27, N-2-(1,1,1,3,3,3-Hexafluoro-2-methylpropyl)-2-(2-(5-morpholin-4-yl)pyridylsulfonyl]hydrazine-1-carboxamide] yielded an EC50 of 1 to 5 µM. With `CC(NC(=O)NNS(=O)(=O)c1ccccc1OC(F)(F)F)(C(F)(F)F)C(F)(F)F` [Example 28, N-2-(1,1,1,3,3,3-Hexafluoro-2-methylpropyl)-2-[(2-trifluoromethoxyphenyl)sulfonyl] hydrazine-1-carboxamide] the EC50 was 1 to 5 µM. With `CC(NC(=O)NNS(=O)(=O)c1ccc(Cl)cc1Cl)(C(F)(F)F)C(F)(F)F` [Example 29, N-2-(1,1,1,3,3,3-Hexafluoro-2-methylpropyl)-2-[(2,4-dichlorophenyl)sulfonyl]hydrazine-1-carboxamide] the EC50 was 1 to 5 µM.
